Measured values from paper PMC10868801, “Characterization of covalent inhibitors that disrupt the interaction between the tandem SH2 domains of SYK and FCER1G phospho-ITAM” (PLOS ONE, 2024).
Converted amounts (≈) assume the structure as drawn. “Also recorded” adds a separate entry of the source.

Experiments:
[1] = LCMS characterization of fresh versus older DMSO stocks; type: physicochemical; conditions: older DMSO stocks versus freshly prepared solutions
Source text: To expand on the initial 40 putative hits that were identified via uHTS (Fig 3D), additional commercially available structural analogues were ordered and screened via TR-FRET and differential scanning fluorimetry (DSF) (S1 Table). […] The observation of a substantial reduction in protein melting temperature motivated us to determine if the compounds interacted covalently with the SYK-tSH2 domains. Additionally, since the thiourea in these small molecules is reported to react via oxidation, the compounds could be capable of forming a covalent disulfide bond with cysteine residues on SYK [39]. We used compound 1, which is a known covalent modifier of SYK-tSH2, as a positive control in the mass spectrometry analysis. […] Literature reports support that this type of chemical reaction can occur in DMSO, forming a disulfide bond. […]
Supplementary file pone.0293548.s005.tiff: S4 Fig Identification of active disulfide compounds which form in DMSO solutions of compounds 42 and 43. […] LCMS Calculated for [M+H]^+ C7H9N4O2S: 213.04; observed: 213.1 [M+H]^+. […] LCMS Calculated for [M+H]^+ C14H15N8O4S2: 423.06; observed: 423.0 [M+H]^+. […] LCMS Calculated for [M+H]^+ C10H15N4O2S: 255.08; observed: 255.1 [M+H]^+. […] LCMS Calculated for [M+H]^+ C20H27N8O4S2: 507.15; observed: 507.1 [M+H]^+. […]

SYK-tSH2 [2] = target: T1, SYK-tSH2 (Homo sapiens, UniProt P43405); test: Covalent labelling and intact mass spectrometry; type: binding; set-up: tandem SH2 domains of human SYK (residues M6-N269); 6xHis (N, cleaved yes); made in house; host or cells: E. coli BL21(DE3)-R3-pRARE; conditions: for Covalent modification of SYK-tSH2 / Number of mass adducts on SYK-tSH2: 100 μM
Source text: The HTS hits 13 and 37 contain a kojic acid moiety, which is proposed to react covalently with proteins in the literature. As a result, we thought that it was likely these compounds are also reacting covalently with SYK-tSH2. […] When bound to the protein, these kojic acid-derived compounds have a 94 Da decrease in mass due to the loss of the pyridin-2-amine leaving group to reveal a Michael acceptor that can react covalently with cysteine residues (Fig 5B).
To expand on the initial 40 putative hits that were identified via uHTS (Fig 3D), additional commercially available structural analogues were ordered and screened via TR-FRET and differential scanning fluorimetry (DSF) (S1 Table). […] The observation of a substantial reduction in protein melting temperature motivated us to determine if the compounds interacted covalently with the SYK-tSH2 domains. Additionally, since the thiourea in these small molecules is reported to react via oxidation, the compounds could be capable of forming a covalent disulfide bond with cysteine residues on SYK [39]. We used compound 1, which is a known covalent modifier of SYK-tSH2, as a positive control in the mass spectrometry analysis. […] Literature reports support that this type of chemical reaction can occur in DMSO, forming a disulfide bond. […] Like we had originally observed for the older DMSO stock solution of 42 (Fig 6C), 44 forms two to four mass adducts (422 Da and 844 Da) more than the protein mass when incubated SYK-tSH2 for 1 h (Fig 6D). […] Due to the mass adducts of two to four (422 Da and 844 Da), we propose that 44 is forming a disulfide bond with between two or four cysteines on SYK-tSH2 (Fig 6G).

SYK-tSH2 [3] = target: T1, SYK-tSH2; test: Bio-layer interferometry (BLI) direct binding; conditions: BLI KD, biotinylated SYK-tSH2
[4] = Kinetic solubility (Analiza, Inc., CLND); type: physicochemical; conditions: phosphate buffered saline, aqueous buffer, kinetic from dmso stock, PBS pH 7.4, 24 h incubation, by Analiza
Method: Following 24 h incubation in a Millipore solubility filter plate, samples were vacuum filtered, and the filtrates collected for analysis. Filtrates were injected into the nitrogen detector for quantification via total chemiluminescent nitrogen determination (CLND). Filtrates were quantified with respect to a calibration curve generated using standards that span the dynamic range of the instrument. The reported solubility value has been corrected for background nitrogen present in the media and DMSO.

[5] = target: T2, SYK-tSH2 / FCER1G p-ITAM interaction (Homo sapiens, UniProt P43405); test: TR-FRET assay of 6xHis-SYK-tSH2 with FITC-labeled FCER1G p-ITAM peptide; type: biochemical
T2 construct: the tSH2 domain of SYK (residues M6-N269) fused to an N-terminal 6×His tag; made in house; host or cells: E. coli BL21(DE3)-R3-pRARE
Source text: To facilitate identification of inhibitors of the SYK-FCER1G interaction, we developed a TR-FRET assay using recombinant protein comprising the tSH2 domain of SYK (residues M6-N269) fused to an N-terminal 6×His tag (S1A Fig). The TR-FRET assay is based on the interaction of a FITC-labeled FCER1G p-ITAM peptide to the 6×His-SYK-tSH2 protein in complex with a terbium-conjugated anti-His antibody (Tb-Ab) (Fig 3B). Once excited, a TR-FRET signal is generated from the Tb donor to the FITC acceptor fluorophore. […] To enable uHTS for large scale screening of small molecule libraries, we miniaturized the TR-FRET assay from 96-well plate format to a 1536-well.
TR-FRET experiments were performed in 20 μL reactions, using 384-well shallow-well microplates (PerkinElmer). Final reaction components contained 6xHis-SYK-tSH2 (SYKA-c020 tagged) (4 nM), FITC-conjugated FCER1G peptide (8 nM), Tb-conjugated anti-6xHis antibody (53 ng/ml; Cisbio) in assay buffer containing 25 mM HEPES (pH 7.5), 200 mM NaCl, 0.1% BSA and 0.05% Tween-20. After a 2h incubation (at room temperature), TR-FRET signals were measured on a BMG Labtech PHERAstar FSX reader using a Lanthascreen Optics Module. A 200 μs delay was used after excitation with a flash lamp before measurement of fluorescence emission at […]. TR-FRET ratios of fluorescent intensity at 520 nm to 490 nm were calculated. The half maximal inhibitory concentration (IC50) was determined by fitting a four parametric logistic curve to the data.

[6] = target: T3, full length SYK and FCER1G (Homo sapiens, UniProt P43405); test: GST pull-down (GST-PD) of GST-SYK and FCER1G-Flag from HEK293T cell lysates; type: biochemical; conditions: dose-response format
T3 construct: full length GST-SYK and FCER1G-Flag were co-expressed in HEK293 cells prior to lysis; expressed in transfected cells; host or cells: HEK293T (CRL-3216, ATCC)
Method: Pull-down assays were used as an orthogonal assay to determine if the compounds could disrupt the PPI between full length SYK and FCER1G proteins from cell lysates. To optimize GST pulldown assays, full length GST-SYK and FCER1G-Flag were co-expressed in HEK293 cells prior to lysis and the protein expression and cell lysate concentrations tested (Fig 4A). All 40 compounds that progressed from uHTS were tested via GST-PD at a single concentration (100 μM) to determine if they could inhibit the PPI between the full-length proteins, with the p-ITAM FCER1G peptide used as a positive control (Fig 4B). […] Compound 24 contains a promiscuous maleimide, which is well known to react indiscriminately with proteins.
GST-, VF-tagged human SYK and FCER1G plasmids for mammalian expression were generated using Gateway cloning technology (Invitrogen) as described previously. The DNA was purified using ZymoPURE Plasmid Maxiprep Kit (D4203, Zymo Research).
WB secondary antibodies: peroxidase-conjugated AffiniPure Goat Anti-Mouse IgG (H+L) (115-035-003, Jackson Immuno Research) 1:5000 dilution in TBST. GST pulldown was performed as described with minor changes. HEK293T (CRL-3216, ATCC) were cultured in Dulbecco’s modified Eagle’s medium with 4.5 g/L glucose, L-glutamine, and sodium pyruvate (10–013-CV, Corning) supplemented with 10% fetal bovine serum and 1% penicillin/streptomycin solution (30–002-CI, CellGro). Cells were incubated at 37°C in humidified conditions with 5% CO2. The HEK293T cells were transfected using 1 mg/mL Polyethylenimine (PEI; 23966, Polysciences) in a ratio of 3 μL to 1 μg DNA. The proteins were expressed for 48 h at 37°C. Cell pellets were re-suspended in the SYK lysis buffer (25 mM HEPES, pH 7.5, 200 mM NaCl, 0.5% Triton X100 (T9284-1L, Sigma-Aldrich), followed by sonication for 10 s (5 s on, 5 s off) at 4°C. Cells were pelleted by 10 min centrifugation at 13,000 rpm at 4°C. The cleared lysates were first pre-incubated with compounds for 30 min and then incubated with glutathione sepharose 4B beads (17075605, Cytiva Sweden AB) at 4°C for 2 h with rotation. After the incubation, beads were washed three times with the SYK lysis buffer, eluted by boiling in sodium dodecyl sulfate-polyacrylamide gel electrophoresis (SDS–PAGE) loading buffer (1610737, Bio-Rad), and analyzed by western blotting.

MSN = MSN (Homo sapiens, UniProt P26038); test: Covalent labelling and intact mass spectrometry (selectivity); conditions: 1 h, room temperature
MSN, sequence (P26038 whole entry, species assumed, the tested form may be a part): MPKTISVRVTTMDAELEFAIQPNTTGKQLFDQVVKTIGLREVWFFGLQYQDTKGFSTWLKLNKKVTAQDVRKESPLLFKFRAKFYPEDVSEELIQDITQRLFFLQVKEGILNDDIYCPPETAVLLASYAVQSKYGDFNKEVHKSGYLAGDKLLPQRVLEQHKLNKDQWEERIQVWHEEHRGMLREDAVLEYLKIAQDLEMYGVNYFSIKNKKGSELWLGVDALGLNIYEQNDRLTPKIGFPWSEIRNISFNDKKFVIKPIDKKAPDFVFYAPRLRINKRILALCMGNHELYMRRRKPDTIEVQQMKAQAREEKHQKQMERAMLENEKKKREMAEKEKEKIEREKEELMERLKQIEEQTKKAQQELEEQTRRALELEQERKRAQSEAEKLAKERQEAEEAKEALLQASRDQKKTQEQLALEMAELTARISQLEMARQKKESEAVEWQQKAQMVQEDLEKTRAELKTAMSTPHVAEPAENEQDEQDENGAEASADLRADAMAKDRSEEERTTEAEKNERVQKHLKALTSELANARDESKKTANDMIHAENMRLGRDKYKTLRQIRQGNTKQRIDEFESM

[7] = tested on: SYK-tSH2 domains with a doubly phosphorylated ITAM from a T-cell antigen receptor ζ-chain; set-up: method as in PMID 25287889; conditions: cited from earlier work
SYK-tSH2 [8] = tested on: SYK-tSH2; set-up: method as in PMID 25287889; conditions: mass spectrometry; cited from earlier work

Compound: Cn1c(=O)c2[nH]c(=S)[nH]c2n(C)c1=O [compound 42, 1,3-dimethyl-8-thioxo-3,7,8,9-tetrahydro-1H-purine-2,6-dione]
- Stability in DMSO stock solution [1]: had formed corresponding disulfide dimers in DMSO over time
- Covalent modification of SYK-tSH2 (SYK-tSH2 [2]; 1 h, freshly prepared DMSO stock): did not form a covalent adduct
- Number of mass adducts on SYK-tSH2 (SYK-tSH2 [2]; 1 h, older DMSO stock solution): two
- Covalent modification of SYK-tSH2 (SYK-tSH2 [2]; 1 h, older DMSO stock solutions): covalently modifies SYK-tSH2
- Kd (SYK-tSH2 [3]): 99 ± 0.8 µM
- solubility kinetic at 24 h [4]: 208 µM (≈ 44.1 µg/mL)
- IC50 [5]: 1.9 ± 0.2 µM

Compound: Cn1c(=O)c2[nH]c(SSc3nc4c([nH]3)c(=O)n(C)c(=O)n4C)nc2n(C)c1=O [compound 44, 8,8’-disulfanediylbis(1,3-dimethyl-3,7-dihydro-1H-purine-2,6-dione)]
- PPI disruption in GST-PD [6]: disrupted the PPI; also recorded: able to disrupt the full-length interaction
- Compound concentration giving 50% labeling of SYK-tSH2 (SYK-tSH2 [2]; 10 μM SYK-tSH2, dose-response by mass spectrometry): 30 µM
- Mass adducts on SYK (SYK-tSH2 [2]; 30 μM, 1 h, room temperature): same formation of mass adducts as 100 μM incubation
- Number of mass adducts on SYK-tSH2 (SYK-tSH2 [2]; 1 h, room temperature): two to four
- melting point: > 300 °C
- Mass adducts on MSN (MSN; 30 μM): same formation of mass adducts as 100 μM incubation
- Number of mass adducts on MSN (MSN; 100 μM, four available cysteines): two mass adducts
- solubility kinetic at 24 h [4]: 70.9 µM (≈ 30 µg/mL)

Compound: O=[N+]([O-])c1c(NCCO)cc(Cl)c2nonc12 [compound 1]
- Inhibition of p-ITAM binding with mutated SYK-tSH2 ([7]; Cys206 mutated to serine or alanine): complete loss of inhibition
- Disruption of SYK-tSH2 binding to doubly phosphorylated ITAM ([7]; fluorescence polarization inhibition assay): disrupt the binding
- Number of mass adducts on SYK-tSH2 (SYK-tSH2 [2]; 1 h, room temperature): one or two
- Number of cysteines on SYK-tSH2 bound (SYK-tSH2 [8]): 4
- Interference with the TR-FRET assay [5]: quenching the TR-FRET donor signal
